This test deals with PI3Kβ (Homo sapiens (Human), UniProt P42338). Put plainly: PI3K isoform TR-FRET enzymatic assay (PI3Kβ). The class given is biochemical. Conditions: 2× Km ATP, 30 minutes at 25° C. In short, it runs like this: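 IC50 came from four-parameter dose-response fits, normalized between DMSO and 1 μM wortmannin controls. The read-out was TR-FRET (615/665 nm) of PIP3 displacing fluorescent PIP3 from Europium GRP-1 after 10 mM EDTA termination. Compounds were incubated with purified heterodimeric PI3Kβ for 30 min at 25° C.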
For orientation: TR-FRET usually uses a lanthanide donor and a delayed reading to cut background.

Structures are written as SMILES.

Sequence of PI3Kβ (P42338 whole entry, canonical isoform): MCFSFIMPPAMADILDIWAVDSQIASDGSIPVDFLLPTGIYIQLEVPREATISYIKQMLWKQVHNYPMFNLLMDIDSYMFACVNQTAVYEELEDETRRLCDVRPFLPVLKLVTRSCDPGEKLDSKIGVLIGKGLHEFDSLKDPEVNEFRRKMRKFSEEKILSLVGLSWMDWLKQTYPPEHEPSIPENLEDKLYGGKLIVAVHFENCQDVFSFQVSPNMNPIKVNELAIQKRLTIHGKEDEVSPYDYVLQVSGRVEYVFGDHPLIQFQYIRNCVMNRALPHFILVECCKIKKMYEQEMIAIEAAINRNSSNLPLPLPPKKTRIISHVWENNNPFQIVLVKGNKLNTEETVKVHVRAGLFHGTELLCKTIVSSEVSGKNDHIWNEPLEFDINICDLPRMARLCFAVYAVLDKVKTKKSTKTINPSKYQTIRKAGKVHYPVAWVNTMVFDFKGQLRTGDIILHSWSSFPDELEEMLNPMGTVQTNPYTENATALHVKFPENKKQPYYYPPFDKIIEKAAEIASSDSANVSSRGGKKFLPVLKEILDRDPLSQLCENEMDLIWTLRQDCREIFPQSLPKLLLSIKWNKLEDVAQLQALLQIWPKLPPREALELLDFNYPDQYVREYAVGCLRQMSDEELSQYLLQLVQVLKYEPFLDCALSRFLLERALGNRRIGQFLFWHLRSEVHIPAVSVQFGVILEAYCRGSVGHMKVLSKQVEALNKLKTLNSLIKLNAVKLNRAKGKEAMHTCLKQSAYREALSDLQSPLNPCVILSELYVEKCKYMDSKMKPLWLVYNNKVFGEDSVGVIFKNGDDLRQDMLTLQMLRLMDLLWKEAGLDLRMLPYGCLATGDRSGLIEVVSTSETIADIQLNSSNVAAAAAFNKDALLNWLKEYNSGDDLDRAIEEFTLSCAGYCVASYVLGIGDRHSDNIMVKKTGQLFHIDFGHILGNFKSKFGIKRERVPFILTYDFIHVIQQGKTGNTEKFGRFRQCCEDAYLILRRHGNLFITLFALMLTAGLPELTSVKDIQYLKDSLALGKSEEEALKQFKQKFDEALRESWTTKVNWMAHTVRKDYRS
Sequence of PI3Kβ (P27986 whole entry partner, canonical isoform): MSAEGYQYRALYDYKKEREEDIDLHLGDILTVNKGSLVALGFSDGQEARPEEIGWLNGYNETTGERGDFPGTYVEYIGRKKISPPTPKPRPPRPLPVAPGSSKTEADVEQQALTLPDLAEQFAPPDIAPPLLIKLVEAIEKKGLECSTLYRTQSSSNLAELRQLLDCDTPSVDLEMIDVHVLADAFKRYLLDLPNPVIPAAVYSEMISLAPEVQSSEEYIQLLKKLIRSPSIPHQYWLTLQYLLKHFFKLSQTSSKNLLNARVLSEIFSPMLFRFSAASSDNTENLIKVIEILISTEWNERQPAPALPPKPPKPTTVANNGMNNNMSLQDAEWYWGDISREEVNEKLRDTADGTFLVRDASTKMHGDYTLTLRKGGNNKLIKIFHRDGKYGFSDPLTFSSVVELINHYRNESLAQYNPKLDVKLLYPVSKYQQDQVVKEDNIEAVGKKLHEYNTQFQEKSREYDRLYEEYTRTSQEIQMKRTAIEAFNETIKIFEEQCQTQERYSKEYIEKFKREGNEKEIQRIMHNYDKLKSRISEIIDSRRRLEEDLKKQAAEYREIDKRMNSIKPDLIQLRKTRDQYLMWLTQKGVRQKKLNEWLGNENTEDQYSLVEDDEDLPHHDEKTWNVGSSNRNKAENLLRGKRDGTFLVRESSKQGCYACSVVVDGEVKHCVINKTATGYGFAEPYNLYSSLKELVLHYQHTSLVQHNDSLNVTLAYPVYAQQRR

In turn, `c1ccc2c(-n3cnc4c(-c5nnc[nH]5)cc(N5CCOCC5)cc43)cc(N3CCNCC3)nc2c1` [Example 379, 4-(1-(2-(piperazin-1-yl)quinolin-4-yl)-4-(4H-1,2,4-triazol-3-yl)-1H-benzo[d]imidazol-6-yl)morpholine] came in with an IC50 of 0.008 µM. In other words, the single-digit nanomolar range. As to `Fc1ccc2c(-n3cnc4c(-c5nnc[nH]5)cc(N5CCOCC5)cc43)ccnc2c1` [Example 53, 4-(l-(7-fluoroquinolin-4-yl)-4-(4H-1,2,4-triazol-3-yl)-1H-benzo[d]imidazol-6-yl)morpholine], it took 0.015 µM to reach half-maximal inhibition (IC50). Compared with the last compound, the IC50 is about 1.9-fold higher.

In turn, `CCc1nc2c(-c3cnc(Cl)[nH]3)cc(N3CCOCC3)cc2n1-c1ccnc2c(F)ccc(F)c12` (atropisomer, axis not shown) [Compound 347, 4-[7-(2-chloro-1H-imidazol-5-yl)-3-(5,8-difluoroquinolin-4-yl)-2-ethylbenzimidazol-5-yl]morpholine] registered an IC50 of 0.007 µM. As for `Cc1nc2c(-c3nnco3)cc(N3CCOCC3)cc2n1-c1ccnc2c(Cl)cccc12` [Example 162, 4-(1-(8-chloroquinolin-4-yl)-2-methyl-4-(1,3,4-oxadiazol-2-yl)-1H-benzo[d]imidazol-6-yl)morpholine], half-maximal inhibition (IC50) required 0.077 µM.

For `Clc1cccc2c(-n3c(C4CCCO4)nc4c(-c5cccnc5)cc(N5CCOCC5)cc43)ccnc12` (stereo not drawn) [Example 199], 0.61 µM corresponded to half-maximal inhibition (IC50). `Clc1cccc2c(-n3c(-c4cn[nH]c4)nc4c(-c5nnc[nH]5)cc(N5CCOCC5)cc43)ccnc12` [Example 120, 4-[3-(8-chloroquinolin-4-yl)-2-(1H-pyrazol-4-yl)-7-(4H-1,2,4-triazol-3-yl)benzimidazol-5-yl]morpholine]: half-maximal inhibition (IC50) was put at 0.027 µM.

`Cc1nc2c(-c3nnc[nH]3)cc(N3CCOC[C@@H]3C)cc2n1-c1ccnc2c(Cl)cccc12` [Example 99, (3S)-4-[3-(8-chloroquinolin-4-yl)-2-methyl-7-(4H-1,2,4-triazol-3-yl)benzimidazol-5-yl]-3-methylmorpholine]: half-maximal inhibition (IC50) was put at 0.033 µM. `Cc1nc2c(-c3nnc(Cl)[nH]3)cc(N3CCOCC3)cc2n1-c1ccnc2c(Cl)ccc(F)c12` [Example 170, 4-(4-(5-chloro-4H-1,2,4-triazol-3-yl)-1-(8-chloro-5-fluoroquinolin-4-yl)-2-methyl-1H-benzo[d]imidazol-6-yl)morpholine]: the IC50 is 0.007 µM.

Regarding `Cc1nnc(-c2cc(N3CCOCC3)cc3c2nc(C)n3-c2cc(-c3cscn3)nc3ccccc23)[nH]1` [Example 104, 4-(2-methyl-4-(5-methyl-4H-1,2,4-triazol-3-yl)-1-(2-(thiazol-4-yl)quinolin-4-yl)-1H-benzo[d]imidazol-6-yl)morpholine], inhibition was half-maximal at 0.084 µM (IC50).

In turn, `Cc1nnc(-c2cc(N3CCOCC3)cc3c2nc(C)n3-c2c(Cl)cnc3c(Cl)cccc23)[nH]1` (atropisomer, axis not shown) [Compound 367, 4-(1-(3,8-dichloroquinolin-4-yl)-2-methyl-4-(5-methyl-4H-1,2,4-triazol-3-yl)-1H-benzo[d]imidazol-6-yl)morpholine] registered a half-maximal inhibitory concentration (IC50) of 5.6 µM.

For the compound `CCc1nc2c(-c3nc(C)cs3)cc(N3CCOCC3)cc2n1-c1ccnc2c(F)cccc12` [Example 232, 4-[2-ethyl-3-(8-fluoroquinolin-4-yl)-7-(4-methyl-1,3-thiazol-2-yl)benzimidazol-5-yl]morpholine], the IC50 was found to be 0.056 µM. This IC50 is about 100-fold lower than that of the compound before.

`CCCc1nc2c(-c3nnc(Cl)[nH]3)cc(N3CCOCC3)cc2n1-c1ccnc2c(F)ccc(F)c12` [Example 182, 4-[7-(5-chloro-4H-1,2,4-triazol-3-yl)-3-(5,8-difluoroquinolin-4-yl)-2-propylbenzimidazol-5-yl]morpholine] registered an IC50 of 0.034 µM. Compared with the last compound, the IC50 is about 1.6-fold lower. The value for `Cc1nc2c(-c3nnc(N)o3)cc(N3CCOCC3)cc2n1-c1ccnc2cc(F)ccc12` [Example 163, 5-(1-(7-fluoroquinolin-4-yl)-2-methyl-6-morpholino-1H-benzo[d]imidazol-4-yl)-1,3,4-oxadiazol-2-amine] was 0.63 µM.

Take `Cc1nc2c(-c3cccc(N(C)C)c3)cc(N3CCOCC3)cc2n1-c1ccnc2c(Cl)cccc12` [Example 316, 3-(1-(8-chloroquinolin-4-yl)-2-methyl-6-morpholino-1H-benzo[d]imidazol-4-yl)-N,N-dimethylaniline]: half-maximal inhibition (IC50) required 2.5 µM. As to `Cc1nc[nH]c1-c1cc(N2CCOCC2)cc2c1nc(C)n2-c1ccnc2c(Cl)cccc12` [Example 177, 4-[3-(8-chloroquinolin-4-yl)-2-methyl-7-(4-methyl-1H-imidazol-5-yl)benzimidazol-5-yl]morpholine], the IC50 is 0.23 µM.

`CCCc1nc2c(-c3nnc[nH]3)cc(N3CCOCC3)cc2n1-c1ccnc2c(Cl)c(F)ccc12` [Example 34, 4-(1-(8-chloro-7-fluoroquinolin-4-yl)-2-propyl-4-(4H-1,2,4-triazol-3-yl)-1H-benzo[d]imidazol-6-yl)morpholine] yielded an IC50 of 0.01 µM.

Consider `CCc1nc2c(-c3nnc(C)[nH]3)cc(N3CCOCC3)cc2n1-c1c(Cl)cnc2c(Cl)cccc12` (atropisomer, axis not shown) [Compound 349, 4-[3-(3,8-dichloroquinolin-4-yl)-2-ethyl-7-(5-methyl-4H-1,2,4-triazol-3-yl)benzimidazol-5-yl]morpholine], for which the IC50 was determined as 0.439 µM. In turn, `CCCc1nc2c(-c3ncco3)cc(N3CCOCC3)cc2n1-c1ccnc2c(F)ccc(F)c12` (atropisomer, axis not shown) [Compound 357, 4-[3-(5,8-difluoroquinolin-4-yl)-7(1,3-oxazol-2-yl)-2-propylbenzimidazol-5-yl]morpholine] had an IC50 of 0.005 µM.

Take `Cc1nc2c(-c3cnc[nH]3)cc(N3CCOCC3)cc2n1-c1ccnc2c(F)cccc12` [Example 208, 4-[3-(8-fluoroquinolin-4-yl)-7-(1H-imidazol-5-yl)-2-methylbenzimidazol-5-yl]morpholine]: the midpoint of inhibition, the IC50, lay at 0.014 µM. Turning to `Clc1cccc2c(-n3c(CC4CC4)nc4c(-c5nnc[nH]5)cc(N5CCOCC5)cc43)ccnc12` [Example 32, 4-(1-(8-chloroquinolin-4-yl)-2-(cyclopropylmethyl)-4-(4H-1,2,4-triazol-3-yl)-1H-benzo[d]imidazol-6-yl)morpholine], the IC50 amounted to 0.009 µM. With `CCc1nc2c(-c3cnn[nH]3)cc(N3CCOCC3)cc2n1-c1ccnc2c(F)ccc(F)c12` [Example 376, 4-(1-(5,8-difluoroquinolin-4-yl)-2-ethyl-4-(1H-1,2,3-triazol-5-yl)-1H-benzo[d]imidazol-6-yl)morpholine], half-maximal inhibition (IC50) was put at 0.07 µM. In the case of `Cc1nc2c(-c3nnc[nH]3)c(F)c(N3CCOCC3)cc2n1-c1ccnc2c(Cl)cccc12` [Example 86, 4-[3-(8-chloroquinolin-4-yl)-6-fluoro-2-methyl-7-(4H-1,2,4-triazol-3-yl)benzimidazol-5-yl]morpholine], 0.016 µM corresponded to half-maximal inhibition (IC50). This IC50 is about 4.4-fold lower than that of the compound before.

`Cc1nnc(-c2cc(N3CCOCC3)cc3c2nc(C)n3-c2ccnc3cccc(C)c23)[nH]1` [Example 93, 4-[2-methyl-3-(5-methylquinolin-4-yl)-7-(5-methyl-4H-1,2,4-triazol-3-yl)benzimidazol-5-yl]morpholine] came in with an IC50 of 0.29 µM. The value for `CCc1nc2c(-c3cnc(Cl)[nH]3)cc(N3CCOCC3)cc2n1-c1ccnc2c(F)ccc(F)c12` (atropisomer, axis not shown) [Compound 346, 4-[7-(2-chloro-1H-imidazol-5-yl)-3-(5,8-difluoroquinolin-4-yl)-2-ethylbenzimidazol-5-yl]morpholine] was 10 µM.

In general, IC50 refers to the concentration that gives 50% inhibition. Low values mean greater potency, high ones weaker potency.

These data come from US10214519B2, “Phosphatidylinositol 3-kinase inhibitors” (Gilead Sciences, Inc., priority 2016, dated 2019).
